One data set has as its target Coagulation factor X (Homo sapiens, UniProt P00742). The data set is described as follows: Inhibition of human factor 10a by para-nitroanilide release assay.
A short description of data set [1]: Mean residence time in cynomolgus monkey at 1 mg/kg, po. The class given is ADME, organism-based, Macaca fascicularis. Further details: dose 1 mg/kg, route oral. The settings on record: in vivo.
A short description of data set [2]: Oral bioavailability in cynomolgus monkey at 1 mg/kg, po. In kind it is ADME, organism-based, Macaca fascicularis. The settings on record: in vivo.
For the next data set, the target named is Prothrombin (Homo sapiens, UniProt P00734). The data set is described as follows: Inhibition of human thrombin by para-nitroanilide release assay.
The target in another data set is Plasminogen (Homo sapiens, UniProt P00747). The data set is described as follows: Inhibition of human plasmin by para-nitroanilide release assay.
Sequence of Plasminogen (P00747 97-580 limits assumed): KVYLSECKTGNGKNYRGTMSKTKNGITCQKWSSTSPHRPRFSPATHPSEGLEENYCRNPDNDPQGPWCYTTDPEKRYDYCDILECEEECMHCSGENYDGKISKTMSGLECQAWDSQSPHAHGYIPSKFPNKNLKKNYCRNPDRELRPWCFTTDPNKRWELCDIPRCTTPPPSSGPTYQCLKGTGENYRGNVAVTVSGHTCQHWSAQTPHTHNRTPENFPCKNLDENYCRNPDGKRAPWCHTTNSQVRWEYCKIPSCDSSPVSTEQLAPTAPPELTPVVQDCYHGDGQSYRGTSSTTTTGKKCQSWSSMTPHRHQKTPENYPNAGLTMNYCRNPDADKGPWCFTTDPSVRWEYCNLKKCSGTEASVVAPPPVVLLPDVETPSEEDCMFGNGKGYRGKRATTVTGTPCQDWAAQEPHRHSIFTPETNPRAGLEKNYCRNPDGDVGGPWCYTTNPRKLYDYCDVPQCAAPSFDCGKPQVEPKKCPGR
Sequence of Plasminogen (P00747 581-810 limits assumed): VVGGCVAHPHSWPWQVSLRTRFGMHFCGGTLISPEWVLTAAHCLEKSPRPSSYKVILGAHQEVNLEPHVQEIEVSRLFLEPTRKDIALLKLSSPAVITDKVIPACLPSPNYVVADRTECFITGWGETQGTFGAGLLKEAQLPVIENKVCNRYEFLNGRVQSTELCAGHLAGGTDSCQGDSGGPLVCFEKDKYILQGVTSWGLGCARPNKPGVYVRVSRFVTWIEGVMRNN
In another data set the target is Trypsin (Homo sapiens, UniProt P07477+P07478+P35030). Description: Inhibition of human trypsin by para-nitroanilide release assay. In kind it is protein assay.
Data set [3] addresses Tissue-type plasminogen activator (Homo sapiens, UniProt P00750). Description: Inhibition of human tissue plasminogen activator by para-nitroanilide release assay.
Data set [4] can be described thus: Plasma concentration in cynomolgus monkey at 1 mg/kg, po after 1 hr. The class given is ADME, organism-based, Macaca fascicularis. Further details: dose 1 mg/kg, route oral.
Data set [5] in a line: Plasma concentration in cynomolgus monkey at 1 mg/kg, po after 2 hrs. In kind it is ADME, organism-based, Macaca fascicularis. Further details: dose 1 mg/kg, route oral.
Data set [6] can be described thus: Plasma concentration in cynomolgus monkey at 1 mg/kg, po after 4 hrs. In kind it is ADME, organism-based, Macaca fascicularis. Further details: dose 1 mg/kg, route oral.
A short description of data set [7]: Plasma concentration in cynomolgus monkey at 1 mg/kg, po after 10 hrs. In kind it is ADME, organism-based, Macaca fascicularis. Further details: dose 1 mg/kg, route oral.
The nature of data set [8]: AUC (0 to 10 hrs) in cynomolgus monkey at 1 mg/kg, po. In kind it is ADME, organism-based, Macaca fascicularis. Further details: time < 10 hr, dose 1 mg/kg, route oral. To be noted: plasma.
Data set [9] is described as follows: Volume of distribution at steady state in cynomolgus monkey at 0.1 mg/kg, iv. The class given is ADME, organism-based, Macaca fascicularis. Further details: dose 0.1 mg/kg, route intravenous. The settings on record: in vivo, read-out: Vdss.
Data set [10] in a line: Total clearance in cynomolgus monkey at 0.1 mg/kg, iv. In kind it is ADME, organism-based, Macaca fascicularis. Further details: dose 0.1 mg/kg, route intravenous. The settings on record: in vivo.
Data set [11] can be described thus: Cmax in cynomolgus monkey at 1 mg/kg, po. To be noted: in vivo. Further details: dose 1 mg/kg, route oral. The class given is ADME, organism-based, Macaca fascicularis.
Data set [12] is described as follows: AUC in cynomolgus monkey at 1 mg/kg, po. In kind it is ADME, organism-based, Macaca fascicularis. Further details: dose 1 mg/kg, route oral. The settings on record: plasma.

Molecules are shown by their SMILES. Bounds are passed on as bounds.

Sequence of Coagulation factor X (P00742 41-179 limits assumed): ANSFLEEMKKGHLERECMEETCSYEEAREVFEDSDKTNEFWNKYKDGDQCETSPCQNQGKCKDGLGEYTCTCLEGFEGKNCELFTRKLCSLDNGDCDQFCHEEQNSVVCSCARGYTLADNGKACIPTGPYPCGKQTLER
Sequence of Coagulation factor X (P00742 235-488 limits assumed): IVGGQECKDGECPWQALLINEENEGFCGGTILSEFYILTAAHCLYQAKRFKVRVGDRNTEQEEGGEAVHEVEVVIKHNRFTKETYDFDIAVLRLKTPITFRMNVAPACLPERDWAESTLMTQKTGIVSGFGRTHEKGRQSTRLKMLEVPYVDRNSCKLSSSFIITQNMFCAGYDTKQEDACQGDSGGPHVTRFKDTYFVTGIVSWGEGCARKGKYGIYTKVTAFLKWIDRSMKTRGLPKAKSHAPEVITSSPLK
Sequence of Tissue-type plasminogen activator (P00750 whole entry): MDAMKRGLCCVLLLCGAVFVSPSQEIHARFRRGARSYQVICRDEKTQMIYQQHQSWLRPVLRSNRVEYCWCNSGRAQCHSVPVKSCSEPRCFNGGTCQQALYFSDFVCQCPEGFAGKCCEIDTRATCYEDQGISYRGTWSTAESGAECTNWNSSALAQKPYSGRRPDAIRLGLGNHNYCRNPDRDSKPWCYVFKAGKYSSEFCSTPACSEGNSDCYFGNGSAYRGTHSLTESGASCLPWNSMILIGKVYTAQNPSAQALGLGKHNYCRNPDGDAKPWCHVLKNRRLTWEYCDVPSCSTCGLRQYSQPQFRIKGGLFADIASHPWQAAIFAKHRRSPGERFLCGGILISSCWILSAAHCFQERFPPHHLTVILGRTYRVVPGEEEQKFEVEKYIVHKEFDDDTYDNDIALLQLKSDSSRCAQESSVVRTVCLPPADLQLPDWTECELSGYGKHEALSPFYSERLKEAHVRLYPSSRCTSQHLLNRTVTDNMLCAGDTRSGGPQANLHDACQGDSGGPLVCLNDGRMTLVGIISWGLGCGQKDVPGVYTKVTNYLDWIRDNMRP

With `O=C(O)CCS(=O)(=O)c1ccc2cc(Cl)ccc2c1`, on Coagulation factor X, the IC50 is over 5 µM.
Compound `Cc1ncc2n1C(=O)N(C1CCN(C(=O)[C@H](O)CS(=O)(=O)c3ccc4cc(Cl)ccc4c3)CC1)C2` yielded an MRT in [1] of 7.05 h. The compound also showed a bioavailability in [2] of 25.4%. Further, the Ki at Prothrombin was 1.9 µM; on Plasminogen, over 60 µM; on Trypsin, over 60 µM; in data set [3], over 60 µM. Moreover, the concentration at 1 h in [4] came out at 2.7 ng/mL. The concentration at 2 h in data set [5] worked out at 6.8 ng/mL. For the same compound, the concentration at 4 h in data set [6] is 6.5 ng/mL. In data set [7], this compound registered a concentration at 10 h of 1.8 ng/mL. Moreover, the AUC(0-t) at 10 h in data set [8] is 44.2 ng·h/mL. The Vd in data set [9] stood at 0.719 L/kg. In data set [10], this compound had a clearance of 14.2 mL/min/kg. Also, the highest concentration (Cmax) in data set [11] is 30.5 ng/mL. Also, the AUC in [12] was determined as 307 ng·h/mL.
Regarding `O=C(CCS(=O)(=O)c1ccc2cc(Cl)ccc2c1)N1CCC(N2Cc3cnc(CO)n3C2=O)CC1`, the MRT in [1] is 7.56 h. In addition, in data set [2], the bioavailability stood at 32.3%. The Ki at Prothrombin is 7.8 µM; on Plasminogen, over 60 µM; on Trypsin, over 60 µM; in data set [3], over 60 µM. The concentration at 1 h in [4] was 16.6 ng/mL. Besides, in data set [5], the concentration at 2 h worked out at 25 ng/mL. The compound further showed a concentration at 4 h in [6] of 13.3 ng/mL. In data set [8], this compound returned an AUC(0-t) at 10 h of 107 ng·h/mL. For the same compound, the Vd in data set [9] was found to be 0.588 L/kg. The compound further gave a clearance in data set [10] of 11.9 mL/min/kg. Besides, in [11], the Cmax is 60.1 ng/mL. Also, the AUC in data set [12] amounted to 470 ng·h/mL.
Compound `Cc1ncc2n1C(=O)N(C1CCN(C(=O)[C@@H](O)CS(=O)(=O)c3ccc4cc(Cl)ccc4c3)CC1)C2` returned a concentration at 1 h in [4] of 0.8 ng/mL. For the same compound, the concentration at 2 h in [5] was determined as 4.4 ng/mL. The concentration at 4 h in data set [6] was found to be 91 ng/mL. Moreover, the concentration at 10 h in data set [7] is 3.6 ng/mL. Also, the exposure AUC(0-t) at 10 h in [8] is 54.6 ng·h/mL.
`Cc1ncc2n1C(=O)N(C1CCN(C(=O)C(=O)CS(=O)(=O)c3ccc4cc(Cl)ccc4c3)CC1)C2` gave an IC50 against Coagulation factor X of 0.93 µM.
`NC1CCN(C(=O)CCS(=O)(=O)c2ccc3cc(Cl)ccc3c2)CC1` returned an IC50 against Coagulation factor X of over 5 µM.
Same read-out and setting: to `O=S(O)c1ccc2cc(Cl)ccc2c1` belongs over 5 µM.
Take `Cc1ncc2n1C(=O)N(C1CCN(C(=O)CCS(=O)(=O)c3ccc4cc(Cl)ccc4c3)CC1)C2`: in [4], the concentration at 1 h amounted to 92.8 ng/mL. This compound also gave a concentration at 2 h in data set [5] of 132 ng/mL. Also, the concentration at 4 h in data set [6] was found to be 65.9 ng/mL. Moreover, the concentration at 10 h in data set [7] worked out at 9.9 ng/mL. In addition, in data set [8], the AUC(0-t) at 10 h stood at 583 ng·h/mL.

Source of the values: ChEMBL document CHEMBL1152687, “Synthesis and biological evaluation of the metabolites of 2-(1-{3-[(6-chloronaphthalen-2-yl)sulfonyl]propanoyl}piperidin-4-yl)-5-methyl-1,2-dihydro-3H-imidazo[1,5-c]imidazol-3-one” (Bioorg Med Chem, 2009).
